In US20250214966A1, “Crystalline Salt Form Of A SHP2 Inhibitor” (Array BioPharma Inc., priority 2022, published 2025):
Like-named read-outs stand apart in the source and are kept apart here.

Assays:
Type in all cases: physicochemical
[1] = Solubility of salts in buffer systems at 37° C. (Table 14); settings: 20 mg in 1 mL; for solubility at 18 h: thermodynamic from solid
Description: The solubility (Table 14) was determined by adding 20 mg of salts (Examples 3 to 8) into 3 HPLC vials, to each vial, a magnetic stirrer bar was added along with 1 mL of the appropriate buffer system (pH 1.2 HCl, pH 4.5 sodium acetate, or pH 6.8 phosphate). The samples were agitated at 37° C. for […]. After 24 hours, the slurries were isolated by centrifugation filtration and isolated mother liquors were analyzed by HPLC.
HPLC method (Table 14): A Dionex Ultimate 3000 HPLC instrument was used with a Waters XSelect HSS T3 Column (100 angstrom, 4.6×150 mm, 5 μm). The column temperature was set to 20° C., the UV wavelength set to 254 nm, the injection volume was 10 μL, with a flow rate of 1.0 mL/min. 10 mM ammonium acetate adjusted to pH 4.8 was used as a mobile phase A, and acetonitrile was used as mobile phase B. The gradient method was set up to achieve 15% mobile phase B at 0 minutes, 95% mobile phase B at 17 minutes—held until 22 minutes, 15% mobile phase B at 22.1 minutes—held until 28 minutes.

[2] = TGA/DSC of salts (Table 14); settings: 10° C./min
Description: TGA/DSC (Table 14): Approximately, 5-10 mg of material was added into a pre-tared open aluminum pan and loaded into a TA Instruments Discovery SDT 650 Auto—Simultaneous DSC and held at room temperature. The sample was then heated at a rate of 10° C./min from 20° C. (ambient) to 400° C. during which time the change in sample weight was recorded along with the heat flow response (DSC). Nitrogen was used as the sample purge gas, at a flow rate of 200 cm3/min.
DSC (Table 14): Approximately, 1-5 mg of material was weighed into an aluminum DSC pan and sealed nonhermetically with an aluminum lid. The sample pan was then loaded into a TA Instruments Discovery DSC 2500 differential scanning calorimeter equipped with a RC90 cooler. The sample and reference were heated to 310° C. at a scan rate of 10° C./min and the resulting heat flow response monitored. The sample was re-cooled to 20° C. and then reheated again to 205° C. all at 10° C./min. Nitrogen was used as the purge gas, at a flow rate of 50 cm^3/min.

[3] = Dynamic vapor sorption of salts (Table 14); settings: 25° C.; for DVS weight change: ramping 40-90% RH
Description: DVS (Table 14): Approximately, 10-20 mg of sample was placed into a mesh vapor sorption balance pan and loaded into a DVS Intrinsic dynamic vapor sorption balance by Surface Measurement Systems. The sample was subjected to a ramping profile from 40-90% relative humidity (RH) at 10% increments, maintaining the sample at each step until a stable weight had been achieved (dm/dt 0.004%, minimum step length 30 minutes, maximum step length 500 minutes) at 25° C. After completion of the sorption cycle, the sample was dried using the same procedure to 0% RH and then a second sorption cycle back to 40% RH. Two cycles were performed. Theweight change during the sorption/desorption cycles were plotted, allowing for the hygroscopic nature of the sample to be determined. XRPD analysis was then carried out on any solid retained. […] The sample was subjected to a ramping profile from 40-90% relative humidity (RH) at 10% increments, maintaining the sample at each step until a stable weight had been achieved (dm/dt 0.004%, minimum step length 30 minutes, maximum step length 500 minutes) at 25° C. After completion of the sorption cycle, the sample was dried using the same procedure to 0% RH and then a second sorption cycle back to 40% RH. Two cycles were performed. The weight change during the sorption/desorption cycles were plotted, allowing for the hygroscopic nature of the sample to be determined. XRPD analysis was then carried out on any solid retained.

[4] = pH 1.2 HCl buffer, simulated gastric fluid, pH 1.2 HCl, read-out: Solubility pH 1.2 HCl
[5] = pH 4.5 sodium acetate buffer, aqueous buffer, pH 4.5 sodium acetate, read-out: Solubility pH 4.5 Sodium Acetate
[6] = pH 6.8 phosphate buffer, aqueous buffer, pH 6.8 phosphate, read-out: Solubility Ph 6.8 Phosphate

Nc1nccc(Sc2cnc(N3CCC4(CC3)Cc3ccccc3[C@H]4N)nn2)c1Cl.O=P(O)(O)O [Example 5, (S)-1′-(6-((2-Amino-3-chloropyridin-4-yl)thio)-1,2,4-triazin-3-yl)-1,3-dihydrospiro[indene-2,4′-piperidin]-1-amine phosphate (Pattern 2)]
Solubility pH 1.2 HCl (mg/mL) ([1]; pH 1.2 HCl): >20 mg/mL | Solubility pH 4.5 Sodium Acetate ([1]; pH 4.5 sodium acetate): 0.4 mg/mL | Solubility Ph 6.8 Phosphate ([1]; pH 6.8 phosphate): 1900 µg/mL | TGA/DSC Melt/degradation [2]: 174 °C | DVS hygroscopic nature [3]: Hygroscopic | DVS weight change [3]: 7.6%

Nc1nccc(Sc2cnc(N3CCC4(CC3)Cc3ccccc3[C@H]4N)nn2)c1Cl.O=P(O)(O)O [Example 4, (S)-1′-(6-((2-Amino-3-chloropyridin-4-yl)thio)-1,2,4-triazin-3-yl)-1,3-dihydrospiro[indene-2,4′-piperidin]-1-amine phosphate (Pattern 1)]
Solubility pH 1.2 HCl (mg/mL) ([1]; pH 1.2 HCl): >20 mg/mL | Solubility pH 4.5 Sodium Acetate ([1]; pH 4.5 sodium acetate): 0.3 mg/mL | Solubility Ph 6.8 Phosphate ([1]; pH 6.8 phosphate): 9300 µg/mL | TGA/DSC Melt/degradation [2]: 100 °C | DVS hygroscopic nature [3]: Hygroscopic | DVS weight change [3]: 6.3%

Nc1nccc(Sc2cnc(N3CCC4(CC3)Cc3ccccc3[C@H]4N)nn2)c1Cl.O=C(O)C(O)C(O)C(=O)O [Example 7, (S)-1′-(6-((2-Amino-3-chloropyridin-4-yl)thio)-1,2,4-triazin-3-yl)-1,3-dihydrospiro[indene-2,4′-piperidin]-1-amine tartrate]
solubility at 18 h [1, 4]: > 20000 µg/mL | solubility at 18 h [1, 5]: 400 µg/mL | solubility at 18 h [1, 6]: 1200 µg/mL | TGA/DSC Melt/degradation [2]: 187 °C | DVS hygroscopic nature [3]: Hygroscopic | DVS weight change [3]: 5.8%

Nc1nccc(Sc2cnc(N3CCC4(CC3)Cc3ccccc3[C@H]4N)nn2)c1Cl.O=C(O)/C=C/C(=O)O [Example 6, (S)-1′-(6-((2-Amino-3-chloropyridin-4-yl)thio)-1,2,4-triazin-3-yl)-1,3-dihydrospiro[indene-2,4′-piperidin]-1-amine fumarate]
solubility at 18 h [1, 4]: > 20000 µg/mL | solubility at 18 h [1, 5]: 200 µg/mL | solubility at 18 h [1, 6]: 400 µg/mL | TGA/DSC Melt/degradation [2]: 225.7 °C | DVS hygroscopic nature [3]: Hygroscopic | DVS weight change [3]: 2.1%
